# Assay results as given in patent US4335247A, “Novel nitrosourea derivatives and process for their production” (Kowa Co., Ltd., priority 1980, dated 1982).
# Read-outs that look alike come from different tables or passages of the source.
# Experiments:
# P388 cancer cell = experiment: Anti-tumor test, P388-inoculated mice (survival effect); type: in vivo; conditions: Mus musculus, P388, ip, intraperitoneal, CDF1 mice; for response vs control in vivo at 12.5 mg/kg / responders at 12.5 mg/kg: 12.5 mg/Kg/day; for response vs control in vivo at 25 mg/kg / responders at 25 mg/kg: 25 mg/Kg/day; for response vs control in vivo at 50 mg/kg / responders at 50 mg/kg: 50 mg/Kg/day
# Procedure: Each experimental group was composed of six CDF1 mice. The mice were inoculated intraperitoneally with 10^6 P388 cancer cell, and the test compounds suspended in a gum arabic were administered intraperitoneally to the animals 24 hours and 5 days, respectively, after the inoculation. The survival effect of each of the compounds was expressed by the percentage of the survival days of the treated animals in each group relative to those of the control animals.
# [1] = Acute toxicity (median lethal dose, intraperitoneal); conditions: mouse, in vivo, ip; intraperitoneal injection, ddy mice, Litchfield-Wilcoxon method
# Procedure: The median lethal dose (LD50) of each of the test compounds was determined by the Litchfield-Wilcoxon method after the intraperitoneal injection of the compound into ddy mice.
# [2] = 24 hours and 5 days after inoculation, read-out: Survival Effect T/C
# [3] = of six mice, read-out: Cure (converted)
# [4] = of six mice, read-out: Tumored Survivors (converted)
# [5] = 100 mg/Kg/day, 24 hours and 5 days after inoculation, read-out: Survival Effect T/C
SMILES,"response vs control in vivo at 6.25 mg/kg (P388 cancer cell; 6.25 mg/Kg/day, 24 hours and 5 days after inoculation, read-out: Survival Effect T/C)",response vs control in vivo at 12.5 mg/kg (P388 cancer cell; [2]),response vs control in vivo at 25 mg/kg (P388 cancer cell; [2]),responders at 25 mg/kg (P388 cancer cell; [3]),LD50 [1],responders at 12.5 mg/kg (P388 cancer cell; [3]),responders at 12.5 mg/kg (P388 cancer cell; [4]),responders at 25 mg/kg (P388 cancer cell; [4]),response vs control in vivo at 50 mg/kg (P388 cancer cell; [2]),responders at 50 mg/kg (P388 cancer cell; [3]),responders at 50 mg/kg (P388 cancer cell; [4]),response vs control in vivo at 100 mg/kg (P388 cancer cell; [5]),"responders at 100 mg/kg (P388 cancer cell; 100 mg/Kg/day, of six mice, read-out: Cure (converted))"
CC(C)[C@H](NC(=O)N(CCCl)N=O)C(=O)Nc1nncs1 [D],223%,281%,291%,83.3%,49 mg/kg,,,,,,,,
CC(C)C[C@H](NC(=O)N(CCCl)N=O)C(=O)Nc1nncs1 [F],,292%,303%,50%,85 mg/kg,16.7%,16.7%,33.3%,,,,,
O=NN(CCCl)C(=O)N[C@@H](Cc1ccccc1)C(=O)Nc1nncs1 [J],,297%,297%,83.3%,74 mg/kg,33.3%,16.7%,,297%,66.7%,16.7%,,
C[C@@H](O)[C@H](NC(=O)N(CCCl)N=O)C(=O)Nc1nncs1 (relative stereo) [L],,153%,93%,16.7%,65 mg/kg,,,,81%,,,,
CC(C)CC(NC(=O)N(CCCl)N=O)C(=O)Nc1nncs1 (stereo not drawn) [E],,220%,303%,33.3%,82 mg/kg,,,16.7%,303%,83.3%,,,
O=NN(CCCl)C(=O)N[C@@H](Cc1c[nH]c2ccccc12)C(=O)Nc1nncs1 [M],,,294%,83.3%,73 mg/kg,,,,294%,50%,33.3%,107%,16.7%
CC(C)C[C@@H](NC(=O)N(CCCl)N=O)C(=O)Nc1nncs1 [O],,,190%,,61 mg/kg,,,,217%,,,188%,
CC(C)[C@H](NC(=O)N(CCCl)N=O)C(=O)O [B],,,230%,,72 mg/kg,,,,297%,16.7%,16.7%,,
CSCC[C@H](NC(=O)N(CCCl)N=O)C(=O)Nc1nncs1 [H],,235%,294%,50%,67 mg/kg,16.7%,,33.3%,294%,83.3%,16.7%,,
O=NN(CCCl)C(=O)N[C@@H](C(=O)Nc1nncs1)c1ccccc1 [I],,297%,297%,33.3%,69 mg/kg,33.3%,16.7%,33.3%,297%,83.3%,,,
CC(C)[C@@H](NC(=O)N(CCCl)N=O)C(=O)Nc1nncs1 [N],,,217%,16.7%,68 mg/kg,,,,99%,33.3%,,,
CC[C@H](C)[C@H](NC(=O)N(CCCl)N=O)C(=O)Nc1nncs1 [G],,247%,297%,16.7%,78 mg/kg,16.7%,,50%,297%,50%,33.3%,,
O=NN(CCCl)C(=O)NC1(C(=O)Nc2nncs2)CCCC1 [K],,175%,176%,,53 mg/kg,,,,176%,,,,
O=NN(CCCl)C(=O)Nc1nncs1 [A],,170%,173%,,78 mg/kg,,,,172%,,,,
